Measurements: patent US6492174B1, “Methods of initiating embryogenic cultures in plants” (Institute of Paper Science & Technology, priority 2000, dated 2002)

Assays:
[1] = tested on: Pinus embryogenic cultures; conditions: solid initiation media containing 30-90 mg/l ABA; cited from earlier work
[2] = tested on: Norway spruce zygotic embryos; test: Norway spruce initiation after ABA pre-treatment of seed or explant, ten weeks; assay type: cell-based
Experimental: In this Example, various ABA pre-treatment methods are compared.
Explants were zygotic embryos flipped out of the megagametophyte, prepared as in Example 1. The experiment consisted of four replications, with a replication consisting of ten explants in a single petri dish. Explants were cultured on solid media lacking ABA.
The treatments were designed to investigate the effects of pre-treating the whole seed compared to treating the explant (i.e. the embryo and megagametophyte) after their removal from the seed. It is presumed that soaking a whole seed will result in less ABA uptake by the megagametophyte and embryo than soaking them directly in ABA due to their being surrounded by seed tissue. Two treatments also compared the effect of the pH of the ABA solution. In Treatment #1, the control, seeds were soaked in water for 24 hours, and then explants were prepared as in Example 1. In Treatment #2, seeds were soaked in 5 ppm ABA for 24 hours prior to explant removal. In Treatment #3, seeds were soaked in 20 ppm ABA for 24 hours prior to explant removal. In Treatment #4, seeds were soaked in water for 24 hours and then the explants were removed and soaked in a 5 ppm ABA solution of pH 4.5 for 30 minutes. In Treatment #5 seeds were soaked in water for 24 hours and then the explants were removed and soaked in a 5 ppm ABA solution of pH 5.5 for 30 minutes. After ten weeks, the explants were examined and the frequency of embryogenic culture initiation was scored (Table 44).

[3] = tested on: Loblolly pine megagametophytes; test: Vacuum infiltration of abscisic acid solutions (liquid media #1036) before culture on solid media #1042, eight weeks; assay type: cell-based
Excerpt: In this experiment the effects of megagametophyte pre-treatment by vacuum infiltration with abscisic acid solutions of varying concentration was investigated. The explants were megagametophytes from summer cones of four open pollinated individual trees, representing multiplicity of genotypes. The seeds contained Stage 2-4 zygotic embryos. Megagametophytes were excised from sterilized seeds, as described in Example 4.
Prior to culturing, the megagametophytes were vacuum infiltrated with liquid growth media #1036 (see Table 47) containing 0, 1, 5, or 25 ppm abscisic acid (See Table 19 for treatment media compositions). After vacuum infiltration, each megagametophyte was placed on 2 ml solid culture media #1042 (see Table 47 for composition) in a single well on a culture well plate.
One possible explanation for the results is that vacuum treatment may damage the megagametophytes.

[4] = tested on: Loblolly pine megagametophytes; test: Loblolly pine extrusion and initiation on solid media #945 with brassinolide, eight weeks; assay type: cell-based
Experimental: In each replicate set of ten explants, the frequency of extrusion was measured as the number of extrusions per ten megagametophytes. A successful extrusion was scored where a filamentous mass of tissue that had emerged from the megagametophyte was clearly visible. Initiation was also scored at the end of the 8th week. In each replicate set of ten explants, the frequency of initiation was recorded as the number of successful initiations out of the ten megagametophytes. A successful initiation was scored where the extruded tissue had clearly proliferated and at least one somatic embryo was visible. Often, visualization was aided by the fact that the zygotic tissue was brownish while new somatic embryos were whitish and translucent. Also, somatic embryos could often be seen growing directly from zygotic embryos.
This experiment measured the effects of varying concentrations of brassinolide on extrusion and initiation in Loblolly pine. The explants in this experiment were megagametophytes isolated from cone collections from four open-pollinated trees, representing a multiplicity of genotypes. The seeds contained Stage 2-4 zygotic embryos. Seeds were sterilized as described in Example 1. Seed coats were split and the megagametophytes were isolated by removing integuments and nucellus. Isolated megagametophytes were placed on solid media. […] The treatment media consisted of media #945 with added brassinolide varying from 0.005 to 0.1 μM (Table 10). The experiment consisted of three replications per treatment, per genotype.
Initiation frequency was increased by the addition of brassinolide at all concentrations (Table 12). There was no clear concentration effect within the tested range. […] One of skill in the art could empirically determine the upper and lower effective concentration of brassinolide which is effective in promoting initiation.

[5] = genotype 5-1207, treatment 2, 1 ppm abscisic acid
[6] = genotype 5-1207, treatment 3, 5 ppm abscisic acid
[7] = genotype 5-1207, treatment 4, 25 ppm abscisic acid
[8] = genotype 7-1051, treatment 2, 1 ppm abscisic acid
[9] = genotype 7-1051, treatment 3, 5 ppm abscisic acid
[10] = genotype 7-1051, treatment 4, 25 ppm abscisic acid
[11] = genotype 11-1055, treatment 2, 1 ppm abscisic acid
[12] = genotype 11-1055, treatment 3, 5 ppm abscisic acid
[13] = genotype 11-1055, treatment 4, 25 ppm abscisic acid
[14] = genotype 11-1507, treatment 2, 1 ppm abscisic acid
[15] = genotype 11-1507, treatment 3, 5 ppm abscisic acid
[16] = genotype 11-1507, treatment 4, 25 ppm abscisic acid
[17] = total, treatment 2, 1 ppm abscisic acid
[18] = total, treatment 3, 5 ppm abscisic acid
[19] = total, treatment 4, 25 ppm abscisic acid

For `CC1=CC(=O)CC(C)(C)C1(O)/C=C/C(C)=C\C(=O)O` (stereo not shown) [ABA, 5-(1-hydroxy-2,6,6,-trimethyl-4-oxo-2-cyclohexen-1-yl)-3-methyl-2,4-penta dienoic acid], the initiation frequencies [1] is listed as 30-38%, the “% Initiating (std. error)” value ([2]; explant soaked in 5 ppm ABA (pH 4.5), 30 minutes) is listed as 31.2 (12.2) % and the “% Initiating (std. error)” value ([2]; explant soaked in 5 ppm ABA (pH 5.5), 30 minutes) is listed as 22.0 (3.0) %. The “% Initiating (std. error)” value ([2]; seed soaked in 5 ppm ABA, 24 hours) was 15.1 (6.6) %, the “% Initiating (std. error)” value ([2]; seed soaked in 20 ppm ABA, 24 hours) was 24.0 (5.4) % and the “% of Megagametophytes Extruding” value [3, 5] was 23.3 (14.5) %. The “% of Megagametophytes Initiating” value [3, 5] was 20 (11.5) %, the “% of Megagametophytes Extruding” value [3, 6] was 10.0 (5.8) % and the “% of Megagametophytes Initiating” value [3, 6] was 10 (5.8) %. For the same compound, the “% of Megagametophytes Extruding” value [3, 7] was 13.3 (13.3) %, the “% of Megagametophytes Initiating” value [3, 7] was 10 (10.0) % and the “% of Megagametophytes Extruding” value [3, 8] was 33.3 (8.8) %. The “% of Megagametophytes Initiating” value [3, 8] was 6.7 (3.3) %, the “% of Megagametophytes Extruding” value [3, 9] was 30.0 (11.5) % and the “% of Megagametophytes Initiating” value [3, 9] was 10 (5.8) %. For the same compound, the “% of Megagametophytes Extruding” value [3, 10] was 56.7 (12.0) %, the “% of Megagametophytes Initiating” value [3, 10] was 13.3 (8.8) % and the “% of Megagametophytes Extruding” value [3, 11] was 53.3 (3.3) %. The “% of Megagametophytes Initiating” value [3, 11] was 16.7 (3.3) %, the “% of Megagametophytes Extruding” value [3, 12] was 66.7 (12.0) % and the “% of Megagametophytes Initiating” value [3, 12] was 30 (11.5) %. The “% of Megagametophytes Extruding” value [3, 13] was 36.7 (3.3) %, the “% of Megagametophytes Initiating” value [3, 13] was 13.3 (3.3) % and the “% of Megagametophytes Extruding” value [3, 14] was 16.7 (6.7) %. The “% of Megagametophytes Initiating” value [3, 14] was 6.7 (6.7) %, the “% of Megagametophytes Extruding” value [3, 15] was 6.7 (3.3) % and the “% of Megagametophytes Initiating” value [3, 15] was 6.7 (3.3) %. The “% of Megagametophytes Extruding” value [3, 16] was 6.7 (3.3) %, the “% of Megagametophytes Initiating” value [3, 16] was 0 (0.0) % and the “% of Megagametophytes Extruding” value [3, 17] was 31.7%. The “% of Megagametophytes Initiating” value [3, 17] was 12.5%, the “% of Megagametophytes Extruding” value [3, 18] was 28.4% and the “% of Megagametophytes Initiating” value [3, 18] was 14.2%. The “% of Megagametophytes Extruding” value [3, 19] was 28.4%, the “% of Megagametophytes Initiating” value [3, 19] was 9.2% and the “promotion of extrusion or initiation” value ([3]; vacuum infiltration, 1, 5 or 25 ppm) was “did not promote extrusion or initiation”.
For `CC(C)[C@H](C)[C@@H](O)[C@H](O)[C@@H](C)[C@H]1CC[C@H]2[C@@H]3COC(=O)[C@H]4C[C@H](O)[C@H](O)C[C@]4(C)[C@H]3CC[C@]12C` [brassinolide], the “Initiation frequency vs control” value ([4]; brassinolide at all concentrations (0.005 to 0.1 μM)) was “increased”, the “% of Megagametophytes Extruding” value ([4]; genotype FC, 0.005 μM Br) was 40.0 (5.8) % and the “% of Megagametophytes Initiating” value ([4]; genotype FC, 0.005 μM Br) was 0 (0) %. The “% of Megagametophytes Extruding” value ([4]; genotype FC, 0.01 μM Br) was 20.0 (5.8) %, the “% of Megagametophytes Initiating” value ([4]; genotype FC, 0.01 μM Br) was 6.7 (3.3) % and the “% of Megagametophytes Extruding” value ([4]; genotype FC, 0.025 μM Br) was 40.0 (5.8) %. The “% of Megagametophytes Initiating” value ([4]; genotype FC, 0.025 μM Br) was 0 (0) %, the “% of Megagametophytes Extruding” value ([4]; genotype FC, 0.05 μM Br) was 26.7 (3.3) % and the “% of Megagametophytes Initiating” value ([4]; genotype FC, 0.05 μM Br) was 0 (0) %. For the same compound, the “% of Megagametophytes Extruding” value ([4]; genotype FC, 0.1 μM Br) was 31.8 (16.5) %, the “% of Megagametophytes Initiating” value ([4]; genotype FC, 0.1 μM Br) was 3.7 (3.7) % and the “% of Megagametophytes Extruding” value ([4]; genotype FT, 0.005 μM Br) was 96.7 (3.3) %. The “% of Megagametophytes Initiating” value ([4]; genotype FT, 0.005 μM Br) was 53.3 (12.0) %, the “% of Megagametophytes Extruding” value ([4]; genotype FT, 0.01 μM Br) was 86.7 (8.8) % and the “% of Megagametophytes Initiating” value ([4]; genotype FT, 0.01 μM Br) was 43.3 (16.7) %. The “% of Megagametophytes Extruding” value ([4]; genotype FT, 0.025 μM Br) was 93.3 (6.7) %, the “% of Megagametophytes Initiating” value ([4]; genotype FT, 0.025 μM Br) was 46.7 (12.0) % and the “% of Megagametophytes Extruding” value ([4]; genotype FT, 0.05 μM Br) was 93.3 (3.3) %. For the same compound, the “% of Megagametophytes Initiating” value ([4]; genotype FT, 0.05 μM Br) was 53.3 (8.8) %, the “% of Megagametophytes Extruding” value ([4]; genotype FT, 0.1 μM Br) was 86.7 (3.3) % and the “% of Megagametophytes Initiating” value ([4]; genotype FT, 0.1 μM Br) was 50 (3.3) %. The “% of Megagametophytes Extruding” value ([4]; genotype FW, 0.005 μM Br) was 83.3 (8.8) %, the “% of Megagametophytes Initiating” value ([4]; genotype FW, 0.005 μM Br) was 20 (5.8) % and the “% of Megagametophytes Extruding” value ([4]; genotype FW, 0.01 μM Br) was 50.0 (10.0) %. For the same compound, the “% of Megagametophytes Initiating” value ([4]; genotype FW, 0.01 μM Br) was 3.3 (3.3) %, the “% of Megagametophytes Extruding” value ([4]; genotype FW, 0.025 μM Br) was 64.8 (13.4) % and the “% of Megagametophytes Initiating” value ([4]; genotype FW, 0.025 μM Br) was 20.7 (11.6) %. The “% of Megagametophytes Extruding” value ([4]; genotype FW, 0.05 μM Br) was 70.0 (11.5) %, the “% of Megagametophytes Initiating” value ([4]; genotype FW, 0.05 μM Br) was 13.3 (8.8) % and the “% of Megagametophytes Extruding” value ([4]; genotype FW, 0.1 μM Br) was 73.3 (8.8) %. The “% of Megagametophytes Initiating” value ([4]; genotype FW, 0.1 μM Br) was 30 (5.8) %, the “% of Megagametophytes Extruding” value ([4]; genotype FX, 0.005 μM Br) was 53.3 (8.8) % and the “% of Megagametophytes Initiating” value ([4]; genotype FX, 0.005 μM Br) was 26.7 (8.8) %. The “% of Megagametophytes Extruding” value ([4]; genotype FX, 0.01 μM Br) was 63.3 (14.5) %, the “% of Megagametophytes Initiating” value ([4]; genotype FX, 0.01 μM Br) was 33.3 (12.0) % and the “% of Megagametophytes Extruding” value ([4]; genotype FX, 0.025 μM Br) was 70.0 (5.8) %. For the same compound, the “% of Megagametophytes Initiating” value ([4]; genotype FX, 0.025 μM Br) was 23.3 (3.3) %, the “% of Megagametophytes Extruding” value ([4]; genotype FX, 0.05 μM Br) was 73.3 (8.8) % and the “% of Megagametophytes Initiating” value ([4]; genotype FX, 0.05 μM Br) was 43.3 (6.7) %. For the same compound, the “% of Megagametophytes Extruding” value ([4]; genotype FX, 0.1 μM Br) was 76.7 (8.8) %, the “% of Megagametophytes Initiating” value ([4]; genotype FX, 0.1 μM Br) was 36.7 (8.8) % and the “concentrations at which brassinolide was effectively used” value ([4]; in our media) was 0.005 to 0.25 µM. For the same compound, the “% of Megagametophytes Extruding” value ([4]; total, 0.005 μM Br) was 68.3%, the “% of Megagametophytes Initiating” value ([4]; total, 0.005 μM Br) was 25.0% and the “% of Megagametophytes Extruding” value ([4]; total, 0.01 μM Br) was 55.0%. The “% of Megagametophytes Initiating” value ([4]; total, 0.01 μM Br) was 21.7%, the “% of Megagametophytes Extruding” value ([4]; total, 0.025 μM Br) was 67.0% and the “% of Megagametophytes Initiating” value ([4]; total, 0.025 μM Br) was 22.7%. For the same compound, the “% of Megagametophytes Extruding” value ([4]; total, 0.05 μM Br) was 65.8%, the “% of Megagametophytes Initiating” value ([4]; total, 0.05 μM Br) was 27.5% and the “% of Megagametophytes Extruding” value ([4]; total, 0.1 μM Br) was 67.1%. For the same compound, the “% of Megagametophytes Initiating” value ([4]; total, 0.1 μM Br) was 30.1%.
